Measurements from ChEMBL document CHEMBL1821602, “The Use of 3,5,4'-Tri-O-acetylresveratrol as a Potential Pro-drug for Resveratrol Protects Mice from γ-Irradiation-Induced Death” (ACS Med Chem Lett, 2011).
Active and inactive are the calls of the source. The calls are words filed in the database; no cut-off is given here.

What was measured:
Mus musculus [1] = species: Mus musculus; experiment: Radioprotective activity against 0 to 7 Gy gamma radiation-induced death in mouse 32Dcl3 cells at 10 uM treated 1 hr prior to irradiation after 7 days by microscopy; format: functional, cell-based
[2] = Stability of the compound assessed as half life; format: physicochemical
Mus musculus [3] = experiment: Radioprotective activity against 9.75 Gy gamma radiation-induced death in C57BL/6NHsd mouse assessed as survival rate at 10 mg/kg, ip administered 10 mins prior to irradiation; format: functional
Serum [4] = experiment: Metabolic stability in mouse serum up to 27 hrs by HPLC analysis; format: ADME, cell-free
Mus musculus [5] = experiment: Radioprotective activity against 9.75 Gy gamma radiation-induced death in C57BL/6NHsd mouse assessed as increase in survival rate at 25 mg/kg, ip administered 10 mins after irradiation daily for 4 days; format: functional, organism-based; design: dose 25 mg/kg
Mus musculus [6] = experiment: Radioprotective activity against 9.75 Gy gamma radiation-induced death in C57BL/6NHsd mouse assessed as increase in survival rate at 1 mg/kg, ip administered 10 mins prior to irradiation; format: functional, organism-based; design: dose 1 mg/kg
Serum [7] = experiment: Metabolic stability in mouse serum assessed as hydrolysis to resveratrol with in 20 secs by HPLC analysis; format: ADME, cell-free; conditions: 20 s
[8] = Metabolic stability in mouse serum assessed as half life in presence of 1:1:8 mixture of EtOH/Cremophor EL/H2O by HPLC analysis; format: ADME, cell-free

Row | SMILES | Activity (Mus musculus [1]) | half-life [2] [min] | Activity (Mus musculus [3]) | Stability (Serum [4]) | Activity (Mus musculus [5]) | Activity (Mus musculus [6]) | Stability (Serum [7]) | half-life [8] [min] | Activity (Mus musculus [3]; route intraperitoneal) [%]
1 | CCCOC(=O)c1cc(O)c(O)c(O)c1 | inactive |  |  |  |  |  |  |  | 
2 | O=C(O[C@@H]1Cc2c(O)cc(O)cc2O[C@H]1c1ccc(O)c(O)c1)c1cc(O)c(O)c(O)c1 | inactive |  |  |  |  |  |  |  | 
3 | Oc1ccc(/C=C/c2cc(O)cc(O)c2)cc1 [RESVERATROL] | Active | 8 | inactive | Stable | inactive | inactive |  |  | 
4 | CC(=O)Oc1ccc(/C=C/c2cc(OC(C)=O)cc(OC(C)=O)c2)cc1 [TRIACETYLRESVERATROL] |  |  |  |  | inactive | inactive | Unstable | 48 | 80
